Converted amounts (≈) assume the structure as drawn. Where a name gives a salt, the structure may show the parent alone. Read-outs that look alike come from different tables or passages of the source.

This assay deals with pathogenic bacteria. The assay is described as follows: MIC by microdilution broth method (NCCLS M7-A4), in vitro antibacterial activity. It is filed as cell-based. In outline:
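MIC read after 35 °C incubation for 16–20 h relative to drug-free growth wells. Cation-adjusted Mueller-Hinton broth with two-fold compound dilutions, organisms at roughly 5×10^4 CFU/well final. Method follows NCCLS document M7-A4.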

[1] abbreviates: Staphylococcus aureus, Organism A: Staphylococcus aureus OC4172, read-out: MIC.
Where [2] appears, read: Streptococcus pneumoniae, ATCC49619, Organism E: Streptococcus pneumoniae ATCC 49619, read-out: MIC.
[3] abbreviates: Streptococcus pneumoniae, Organism C: fluoroquinolone-resistant clinical isolate of Streptococcus pneumoniae (QRDR amino acid substitutions).
Setting [4] is: Streptococcus pneumoniae, Organism D: fluoroquinolone-resistant clinical isolate of Streptococcus pneumoniae (QRDR amino acid substitutions).
[5] abbreviates: Streptococcus pneumoniae, Organism B: fluoroquinolone-resistant clinical isolate of Streptococcus pneumoniae (QRDR amino acid substitutions).

With `Cc1c(F)c(N2CCC/C(=C\CN)C2)cc2c1c(=O)c(C(=O)O)cn2C1CC1` [Compound 451, (E)-7-[3-(2-Amino-ethylidene)-piperidin-1-yl]-1-cyclopropyl-6-fluoro-5-methyl-4-oxo-1,4-dihydro-quinoline-3-carboxylic acid], the MIC under setting [1] came to 0.25 µg/mL (≈ 0.649 µM), the MIC under setting [2] worked out at 1 µg/mL (≈ 2.59 µM), the MIC under setting [3] turned out to be 16 µg/mL (≈ 41.5 µM) and the MIC under setting [4] was found to be 1 µg/mL (≈ 2.59 µM).
Take `NC/C=C1/CCCN(c2cc3c(cc2F)c(=O)c(C(=O)O)cn3C2CC2)C1` [Compound 383, (Z)-7-[3-(2-Amino-ethylidene)-piperidin-1-yl]-1-cyclopropyl-6-fluoro-4-oxo-1,4-dihydro-quinoline-3-carboxylic acid]: the MIC reads like this: under setting [1], 0.12 µg/mL (≈ 0.323 µM); under setting [2], 1 µg/mL (≈ 2.69 µM); under setting [5], 8 µg/mL (≈ 21.5 µM); under setting [3], above 16 µg/mL; under setting [4], above 16 µg/mL.
As to `COc1c(N2CCC(=C(Cl)CNC(=O)CN)CC2)c(F)cc2c(=O)c(C(=O)O)cn(C3CC3)c12.O=C(O)C(F)(F)F` [Compound 445, 7-{4-[2-(2-Amino-acetylamino)-1-chloro-ethylidene]-piperidin-1-yl}-1-cyclopropyl-6-fluoro-8-methoxy-4-oxo-1,4-dihydro-quinoline-3-carboxylic Acid Trifluoroacetate Salt], the MIC is, setting by setting: under setting [1], 0.12 µg/mL; under setting [2], 1 µg/mL; under setting [5], 16 µg/mL; under setting [3], above 16 µg/mL; under setting [4], above 16 µg/mL.
Regarding `CN(C)CCNCC(Cl)=C1CCN(c2nc3c(cc2F)c(=O)c(C(=O)O)cn3C2CC2)CC1` [Compound 177, 7-{4-[1-Chloro-2-(2-dimethylamino-ethylamino)-ethylidene]-piperidin-1-yl}-1-cyclopropyl-6-fluoro-4-oxo-1,4-dihydro-[1,8]naphthyridine-3-carboxylic acid], the MIC is 1 µg/mL (≈ 2.09 µM) under setting [1]; 4 µg/mL (≈ 8.37 µM) under setting [2]; 8 µg/mL (≈ 16.7 µM) under setting [5]; above 16 µg/mL under setting [3]; above 16 µg/mL under setting [4].
Turning to `C[C@H]1COc2c(N3CCC(=C(C#N)CN)CC3)c(F)cc3c(=O)c(C(=O)O)cn1c23` [Compound 435, 9-[4-(2-Amino-1-cyano-ethylidene)-piperidin-1-yl]-8-fluoro-(3S)-3-methyl-6-oxo-2,3-dihydro-6H-1-oxa-3a-aza-phenalene-5-carboxylic Acid], the MIC runs as follows: under setting [1], 0.12 µg/mL (≈ 0.291 µM); under setting [2], 0.5 µg/mL (≈ 1.21 µM); under setting [3], 4 µg/mL (≈ 9.7 µM); under setting [4], 8 µg/mL (≈ 19.4 µM).
In the case of `C[C@H]1COc2c(N3CCC(=C(F)CN(C)C)CC3)c(F)cc3c(=O)c(C(=O)O)cn1c23` [Compound 295, 9-[4-(2-Dimethylamino-1-fluoro-ethylidene)-piperidin-1-yl]-8-fluoro-(3S)-3-methyl-6-oxo-2,3-dihydro-6H-1-oxa-3a-aza-phenalene-5-carboxylic Acid], the MIC worked out at 0.5 µg/mL (≈ 1.15 µM) under setting [1]; 2 µg/mL (≈ 4.61 µM) under setting [2]; 16 µg/mL (≈ 36.9 µM) under setting [5]; 16 µg/mL (≈ 36.9 µM) under setting [3]; 8 µg/mL (≈ 18.5 µM) under setting [4].
On to `NCC(F)=C1CN(c2c(F)cc3c(=O)c(C(=O)O)cn(C4CC4)c3c2OC(F)F)C1` [Compound 160, 7-[3-(2-Amino-1-fluoro-ethylidene)-azetidin-1-yl]-1-cyclopropyl-8-difluoromethoxy-6-fluoro-4-oxo-1,4-dihydro-quinoline-3-carboxylic acid], for which the MIC worked out at 0.06 µg/mL (≈ 0.14 µM) under setting [1]; 0.12 µg/mL (≈ 0.281 µM) under setting [2]; 2 µg/mL (≈ 4.68 µM) under setting [5]; 2 µg/mL (≈ 4.68 µM) under setting [3]; 1 µg/mL (≈ 2.34 µM) under setting [4].
Turning to `Nc1nc(-n2cc(C(=O)O)c(=O)c3cc(F)c(N4CCC(=C(F)CO)CC4)c(Cl)c32)c(F)cc1F` [Compound 417, 1-(6-Amino-3,5-difluoro-pyridin-2-yl)-8-chloro-6-fluoro-7-[4-(1-fluoro-2-hydroxy-ethylidene)-piperidin-1-yl]-4-oxo-1,4-dihydro-quinoline-3-carboxylic acid], the MIC runs as follows: under setting [1], 0.03 µg/mL (≈ 0.0585 µM); under setting [2], 0.5 µg/mL (≈ 0.975 µM); under setting [5], 8 µg/mL (≈ 15.6 µM); under setting [3], above 16 µg/mL; under setting [4], 4 µg/mL (≈ 7.8 µM).
The corresponding values for `NCC(Cl)=C1CN(c2c(F)cc3c(=O)c(C(=O)O)cn(-c4nc(N)c(F)cc4F)c3c2Cl)C1` [Compound 268, 7-[3-(2-Amino-1-chloro-ethylidene)-azetidin-1-yl]-1-(6-amino-3,5-difluoro-pyridin-2-yl)-8-chloro-6-fluoro-4-oxo-1,4-dihydro-quinoline-3-carboxylic Acid] are at most 0.015 µg/mL, 0.03 µg/mL (≈ 0.06 µM), 0.06 µg/mL (≈ 0.12 µM), 0.12 µg/mL (≈ 0.24 µM) and 0.12 µg/mL (≈ 0.24 µM).
Regarding `C[C@H]1COc2c(N3CCC/C(=C\CN)C3)c(F)cc3c(=O)c(C(=O)O)cn1c23` [Compound 401, (E)-9-[3-(2-Amino-ethylidene)-piperidin-1-yl]-8-fluoro-(3S)-3-methyl-6-oxo-2,3-dihydro-6H-1-oxa-3a-aza-phenalene-5-carboxylic acid], the MIC runs as follows: under setting [1], 1 µg/mL (≈ 2.58 µM); under setting [2], 8 µg/mL (≈ 20.6 µM); under setting [3], above 16 µg/mL; under setting [4], above 16 µg/mL.
In the case of `COc1c(N2CCOC/C(=C(\F)CN)C2)c(F)cc2c(=O)c(C(=O)O)cn(C3CC3)c12` [Compound 507, (Z)-7-[6-(2-Amino-1-fluoro-ethylidene)-[1,4]oxazepan-4-yl]-1-cyclopropyl-6-fluoro-8-methoxy-4-oxo-1,4-dihydro-quinoline-3-carboxylic acid], the minimum inhibitory concentration (MIC) by setting is: under setting [1], 0.06 µg/mL (≈ 0.138 µM); under setting [2], 0.25 µg/mL (≈ 0.574 µM); under setting [5], 0.12 µg/mL (≈ 0.276 µM); under setting [3], 2 µg/mL (≈ 4.59 µM); under setting [4], 2 µg/mL (≈ 4.59 µM).
Consider `CC(C)NCC(F)=C1CCN(c2c(F)cc3c(=O)c(C(=O)O)cn(C4CC4)c3c2OC(F)F)CC1` [Compound 251, 1-Cyclopropyl-8-difluoromethoxy-6-fluoro-7-[4-(1-fluoro-2-isopropylamino-ethylidene)-piperidin-1-yl]-4-oxo-1,4-dihydro-quinoline-3-carboxylic acid], for which the MIC by setting is: under setting [1], 0.5 µg/mL (≈ 1.01 µM); under setting [2], 1 µg/mL (≈ 2.01 µM); under setting [3], 16 µg/mL (≈ 32.2 µM); under setting [4], above 2 µg/mL.
The corresponding values for `CC(C)NCC(Cl)=C1CCN(c2cc3c(cc2F)c(=O)c(C(=O)O)cn3C2CC2)CC1` [Compound 248, 7-[4-(1-Chloro-2-isopropylamino-ethylidene)-piperidin-1-yl]-1-cyclopropyl-6-fluoro-4-oxo-1,4-dihydro-quinoline-3-carboxylic acid] are 0.5 µg/mL (≈ 1.12 µM), 2 µg/mL (≈ 4.46 µM), 16 µg/mL (≈ 35.7 µM) and 4 µg/mL (≈ 8.93 µM).
For `CNCC(F)=C1CN(c2cc3c(cc2F)c(=O)c(C(=O)O)cn3C2CC2)C1.O=C(O)C(F)(F)F` [Compound 430, 1-Cyclopropyl-6-fluoro-7-[3-(1-fluoro-2-methylamino-ethylidene)-azetidin-1-yl]-4-oxo-1,4-dihydro-quinoline-3-carboxylic acid trifluoroacetic acid salt], the MIC runs as follows: under setting [1], 0.12 µg/mL; under setting [2], 0.5 µg/mL; under setting [5], 8 µg/mL; under setting [3], 2 µg/mL; under setting [4], 4 µg/mL.
The corresponding values for `CC(CN)=C1CCN(c2cc3c(cc2F)c(=O)c(C(=O)O)cn3C2CC2)CC1` [Compound 64, 7-[4-(2-Amino-1-methyl-ethylidene)-piperidin-1-yl]-1-cyclopropyl-6-fluoro-4-oxo-1,4-dihydro-quinoline-3-carboxylic acid] are 0.12 µg/mL (≈ 0.311 µM), 1 µg/mL (≈ 2.59 µM), 8 µg/mL (≈ 20.8 µM), 2 µg/mL (≈ 5.19 µM) and 8 µg/mL (≈ 20.8 µM).
As for `COc1c(N2CCC/C(=C\CN)C2)c(F)cc2c(=O)c(C(=O)O)cn([C@@H]3C[C@@H]3F)c12` [Compound 409, (E)-7-[3-(2-Amino-ethylidene)-piperidin-1-yl]-6-fluoro-(1R,2S)-1-(2-fluoro-cyclopropyl)-8-methoxy-4-oxo-1,4-dihydro-quinoline-3-carboxylic acid], the MIC by setting is: under setting [1], 0.12 µg/mL (≈ 0.286 µM); under setting [2], 1 µg/mL (≈ 2.38 µM); under setting [3], above 16 µg/mL; under setting [4], above 16 µg/mL.
As to `COc1c(N2CCC(=C(Cl)CN(C)C)CC2)c(F)cc2c(=O)c(C(=O)O)cn(C3CC3)c12` [Compound 191, 7-[4-(1-Chloro-2-dimethylamino-ethylidene)-piperidin-1-yl]-1-cyclopropyl-6-fluoro-8-methoxy-4-oxo-1,4-dihydro-quinoline-3-carboxylic acid], the MIC by setting is: under setting [1], 0.25 µg/mL (≈ 0.539 µM); under setting [2], 0.5 µg/mL (≈ 1.08 µM); under setting [5], 8 µg/mL (≈ 17.2 µM); under setting [3], 8 µg/mL (≈ 17.2 µM); under setting [4], 2 µg/mL (≈ 4.31 µM).
For `C/C(CN)=C1\CCCN(c2nc3c(cc2F)c(=O)c(C(=O)O)cn3-c2ccc(F)cc2F)C1` [Compound 380, (Z)-7-[3-(2-Amino-1-methyl-ethylidene)-piperidin-1-yl]-1-(2,4-difluoro-phenyl)-6-fluoro-4-oxo-1,4-dihydro-[1,8]naphthyridine-3-carboxylic acid], the MIC is, setting by setting: under setting [1], 0.12 µg/mL (≈ 0.262 µM); under setting [2], 0.5 µg/mL (≈ 1.09 µM); under setting [5], 8 µg/mL (≈ 17.5 µM); under setting [3], 8 µg/mL (≈ 17.5 µM); under setting [4], 4 µg/mL (≈ 8.73 µM).
Turning to `NC/C(F)=C1/CCCN(c2cc3c(cc2F)c(=O)c(C(=O)O)cn3C2CC2)C1` [Compound 256, (E)-7-[3-(2-Amino-1-fluoro-ethylidene)-piperidin-1-yl]-1-cyclopropyl-6-fluoro-4-oxo-1,4-dihydro-quinoline-3-carboxylic Acid Trifluoroacetic Acid Salt], the MIC reads like this: (Staphylococcus aureus, Organism A: Staphylococcus aureus OC4172) 0.03 µg/mL; (Streptococcus pneumoniae, ATCC49619, Organism E: Streptococcus pneumoniae ATCC 49619) 0.06 µg/mL; under setting [5], 1 µg/mL; under setting [3], 1 µg/mL; under setting [4], 1 µg/mL.

Source of the values: US20090156577A1, “7-AMINO ALKYLIDENYL-HETEROCYCLIC QUINOLONES AND NAPHTHYRIDONES” (priority 2004, published 2009).
